Results published in paper PMC2853924 (Journal of medicinal chemistry, 2010).
Read-outs that look alike come from different tables or passages of the source.

Columns and labels:
Torpedo VAChT [1] = target: T1, Torpedo VAChT (Tetronarce californica, UniProt P81721); details: for VAChT/σ selectivity (in words): based on selectivity index; for VAChT/sigma selectivity index (selectivity ratio): Ki (σ1 or σ2)/Ki (VAChT)
T1 sequence (P81721 1-515): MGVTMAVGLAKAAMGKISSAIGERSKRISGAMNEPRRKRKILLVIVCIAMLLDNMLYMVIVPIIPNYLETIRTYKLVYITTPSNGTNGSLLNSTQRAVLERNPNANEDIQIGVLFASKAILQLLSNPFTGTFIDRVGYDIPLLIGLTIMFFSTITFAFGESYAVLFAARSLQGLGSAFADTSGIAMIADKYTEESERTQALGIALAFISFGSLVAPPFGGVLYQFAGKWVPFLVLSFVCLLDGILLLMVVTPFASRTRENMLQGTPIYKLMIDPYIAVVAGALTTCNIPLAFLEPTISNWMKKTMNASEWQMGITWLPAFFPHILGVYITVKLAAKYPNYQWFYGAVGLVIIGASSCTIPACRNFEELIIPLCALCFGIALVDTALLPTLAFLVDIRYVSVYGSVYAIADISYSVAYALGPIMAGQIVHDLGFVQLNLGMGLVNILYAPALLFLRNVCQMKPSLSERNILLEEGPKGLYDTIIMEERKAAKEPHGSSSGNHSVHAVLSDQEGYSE

Torpedo VAChT [2] = target: T1, Torpedo VAChT; details: read-out: VAChT (Ki [nM]), cited from earlier work
σ1 receptor = σ1 receptor (Cavia porcellus, UniProt Q60492); format: binding, guinea pig
Chain of σ1 receptor (Q60492 whole entry): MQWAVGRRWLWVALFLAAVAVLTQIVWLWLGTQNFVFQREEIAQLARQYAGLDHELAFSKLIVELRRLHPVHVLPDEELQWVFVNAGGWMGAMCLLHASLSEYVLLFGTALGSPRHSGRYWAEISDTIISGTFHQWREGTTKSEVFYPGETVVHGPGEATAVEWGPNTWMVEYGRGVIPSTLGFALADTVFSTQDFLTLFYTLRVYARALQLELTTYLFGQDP

σ2 receptor = target: T2, σ2 receptor (Rattus norvegicus, UniProt Q5U3Y7); assay: σ2 receptor binding assay, [3H]DTG, rat liver membrane homogenates
T2 sequence (Q5U3Y7 1-176): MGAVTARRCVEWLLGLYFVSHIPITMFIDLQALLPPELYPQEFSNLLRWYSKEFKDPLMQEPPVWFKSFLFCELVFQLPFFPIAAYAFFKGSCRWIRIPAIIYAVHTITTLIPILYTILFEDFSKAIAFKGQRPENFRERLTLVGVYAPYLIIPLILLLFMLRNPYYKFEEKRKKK

Cl.O=C(c1ccccc1)C1(c2ccccc2)CCN([C@@H]2Cc3ccccc3C[C@H]2O)CC1 (relative stereo) [Compound 22a, trans-3-(4-Benzoyl-4-phenylpiperidinyl)-2-hydroxy-1,2,3,4-tetrahydronaphthalene hydrochloride]
fold less potent at VAChT than benzovesamicol (2) (Torpedo VAChT [1]; relative to benzovesamicol (2)): 30 fold

O=C(c1ccc(F)cc1)C1CCN([C@@H]2Cc3ccccc3C[C@H]2O)CC1 (relative stereo) [Compound 28b, trans-3-[4-(4-fluorobenzoyl)piperidinyl]-2-hydroxy-1,2,3,4-tetrahydronaphthalene]
Ki (Torpedo VAChT [2]): 2.7 ± 0.4 nM

Cl.O=C(c1ccc(Br)s1)C1CCN([C@@H]2Cc3ccccc3C[C@H]2O)CC1 (relative stereo) [Compound 28g, trans-3-[4-(5-Bromothienylcarbonyl)piperidinyl]-2-hydroxy-1,2,3,4-tetrahydronaphthalene hydrochloride]
VAChT/σ selectivity (in words) (Torpedo VAChT [1]): high VAChT/σ selectivity

Cl.O=C(c1ccc(I)s1)C1CCN([C@@H]2Cc3ccccc3C[C@H]2O)CC1 (relative stereo) [Compound 28h, trans-3-[4-(5-Iodothienylcarbonyl)piperidinyl]-2-hydroxy-1,2,3,4-tetrahydronaphthalene hydrochloride]
VAChT/σ selectivity (in words) (Torpedo VAChT [1]): high VAChT/σ selectivity

Cl.O=C(C1CCN([C@@H]2Cc3ccccc3C[C@H]2O)CC1)N1CCCCC1 (relative stereo) [Compound 34a, Trans-3-[4-(piperidyl)carbonylpiperidyl]-2-hydroxy-1,2,3,4-tetrahydronaphthalene hydrochloride]
Selectivity Index Ki-σ1/Ki-VAChT (σ1 receptor; Ki (σ1)/Ki (VAChT)): >32.3 | Selectivity Index Ki-σ2/Ki-VAChT (σ2 receptor): >32.3

Cl.O=C(C1CCN([C@@H]2Cc3ccccc3C[C@H]2O)CC1)N1CCC(c2ccccc2)CC1 (relative stereo) [Compound 34b, trans-3-[4-(4-Phenylpiperidyl)carbonylpiperidyl]-2-hydroxy-1,2,3,4-tetrahydronaphthalene hydrochloride]
Selectivity Index Ki-σ2/Ki-VAChT (σ2 receptor): >483.1

Cl.O=C(C1CCN([C@@H]2Cc3ccccc3C[C@H]2O)CC1)N1CCC(Cc2ccccc2)CC1 (relative stereo) [Compound 34c, trans-3-[4-(4-Benzylpiperidyl)carbonylpiperidyl]-2-hydroxy-1,2,3,4-tetrahydronaphthalene hydrochloride]
Selectivity Index Ki-σ2/Ki-VAChT (σ2 receptor): >416.7

Cl.O=C(C1CCN([C@@H]2Cc3ccccc3C[C@H]2O)CC1)N1CCN(Cc2ccccc2)CC1 (relative stereo) [Compound 34d, trans-3-[4-(4-Benzylpiperazinyl)carbonylpiperidyl]-2-hydroxy-1,2,3,4-tetrahydronaphthalene hydrochloride]
Selectivity Index Ki-σ2/Ki-VAChT (σ2 receptor): >480.8 | VAChT/σ selectivity (in words) (Torpedo VAChT [1]): moderate selectivity

CCOC(=O)C1CCN([C@@H]2Cc3ccccc3C[C@H]2O)CC1.Cl (relative stereo) [Compound 34e, trans-3-[4-Ethoxycarbonylpiperidyl]-2-hydroxy-1,2,3,4-tetrahydronaphthalene hydrochloride]
Selectivity Index Ki-σ1/Ki-VAChT (σ1 receptor; Ki (σ1)/Ki (VAChT)): >14.6 | Selectivity Index Ki-σ2/Ki-VAChT (σ2 receptor): >14.6

Nc1cccc2c1CC(N1CCC(c3ccccc3)CC1)C(O)C2 (stereo not shown) [Compound 3, reference compound]
Ki (Torpedo VAChT [2]; Torpedo synaptic vesicles): 0.0065 ± 0.0005 nM

Cl.O=C(c1ccccc1)C1(c2ccccc2)CCN([C@@H]2CCCC[C@H]2O)CC1 [Compound 20, 2-(4-Benzoyl-4-phenylpiperidinyl)cyclohexanol hydrochloride]
fold lower affinity for VAChT than vesamicol (1) (Torpedo VAChT [1]; relative to vesamicol (1)): 35 fold

Cl.O=C(c1ccc(I)s1)C1CCN([C@@H]2CCCC[C@H]2O)CC1 [Compound 27h, 2-[4-(5-Iodothien-2-yl)carbonylpiperidinyl]cyclohexanol hydrochloride]
affinity for σ1 receptors (class in words) (σ1 receptor): high (high (Ki = 1–10 nM))

Cl.Nc1cccc2c1C[C@@H](N1CCC(C(=O)c3ccc(F)cc3)CC1)[C@H](O)C2 [Compound 30b, 5-Amino-3-[4-(p-fluorobenzoyl)piperidinyl]-2-hydroxy-1,2,3,4,-tetrahydronaphthalene hydrochloride]
Selectivity Index Ki-σ1/Ki-VAChT (σ1 receptor): >416.7 | Selectivity Index Ki-σ2/Ki-VAChT (σ2 receptor): >416.7

Cl.Nc1cccc2c1C[C@@H](N1CCC(C(=O)c3ccc(Br)cc3)CC1)[C@H](O)C2 [Compound 30c, 5-Amino-3-[4-(p-bromobenzoyl)piperidinyl]-2-hydroxy-1,2,3,4,-tetrahydronaphthalene hydrochloride]
VAChT/sigma selectivity index (selectivity ratio) (Torpedo VAChT [1]): greater than 500

Cl.Nc1cccc2c1C[C@@H](N1CCC(C(=O)c3cccs3)CC1)[C@H](O)C2 [Compound 30f, 5-Amino-3-[4-(thien-2-yl)carbonylpiperidyl]-2-hydroxy-1,2,3,4-tetrahydronaphthalene hydrochloride]
Selectivity Index Ki-σ1/Ki-VAChT (σ1 receptor; Ki (σ1)/Ki (VAChT)): >204.1 | Selectivity Index Ki-σ2/Ki-VAChT (σ2 receptor): >204.1

Cl.Nc1cccc2c1C[C@@H](N1CCC(C(=O)c3ccc(Br)s3)CC1)[C@H](O)C2 [Compound 30g, 5-Amino-3-[4-(5-bromothien-2-yl)carbonylpiperidinyl]-2-hydroxy-1,2,3,4-tetrahydronaphthalene hydrochloride]
Selectivity Index Ki-σ1/Ki-VAChT (σ1 receptor): >2439.0 | Selectivity Index Ki-σ2/Ki-VAChT (σ2 receptor): >2439.0 | VAChT/sigma selectivity index (selectivity ratio) (Torpedo VAChT [1]): greater than 1000

Cl.Nc1cccc2c1C[C@@H](O)[C@H](N1CCC(C(=O)c3cccs3)CC1)C2 [Compound 31f, 8-Amino-3-[4-(thien-2-yl)carbonylpiperidyl]-2-hydroxy-1,2,3,4-tetrahydronaphthalene hydrochloride]
Selectivity Index Ki-σ1/Ki-VAChT (σ1 receptor): >7.5 | Selectivity Index Ki-σ2/Ki-VAChT (σ2 receptor): >7.5
